Data from patent EP4667483A1, “HUMAN TRANSFERRIN RECEPTOR-BINDING PEPTIDE” (JCR Pharmaceuticals Co., Ltd., priority 2023, dated 2024).
Numbered stars: 1 amine (or outer) side, 2 acyl side, 3 side chain; on linkers, the order of the positions; unused ones are H or OH. Bridge positions count the residues as written; N and C are the ends. Square brackets hold non-standard residues; d marks the D form. Peptide text beside a SMILES is read from it. * marks the point of attachment. Trp(1-CH2COOH) = N[C@@H](Cc1cn(CC(=O)O)c2ccccc12)C(=O)O; NMePhe(4-COOH) = CN[C@@H](Cc1ccc(C(=O)O)cc1)C(=O)O; Nle(6-morpholino) = N[C@@H](CCCCN1CCOCC1)C(=O)O; X2 = O=C([C@H](Cc1cn(CCO)c2ccccc12)N[*:1])[*:2]; Phe(3-COOH) = N[C@@H](Cc1cccc(C(=O)O)c1)C(=O)O; NMePhe(3-Cl) = CN[C@@H](Cc1cccc(Cl)c1)C(=O)O; 3Pal(6-NH2) = Nc1ccc(C[C@H](N)C(=O)O)cn1; NMeY = CN[C@@H](Cc1ccc(O)cc1)C(=O)O; Nva(3-Et) = CCC(CC)[C@H](N)C(=O)O; NH(CH2CH2O)4Me = COCCOCCOCCOCCN*; hArg = N=C(N)NCCCC[C@H](N)C(=O)O; 4Pal = N[C@@H](Cc1ccncc1)C(=O)O; PEG4 = NCCOCCOCCOCCOCCC(=O)O; Carboxymethyl = O=C(O)C*

Experiments:
Format in all cases: binding
[1] = molecular target: T1, human transferrin receptor (hTfR) (Homo sapiens, UniProt P02786); assay: Evaluation of pH dependence (ratio of SPR koff or KD at pH 6.0 to pH 7.4); settings: ratio of koff at pH 6.0 to pH 7.4
T1 sequence (P02786 whole entry): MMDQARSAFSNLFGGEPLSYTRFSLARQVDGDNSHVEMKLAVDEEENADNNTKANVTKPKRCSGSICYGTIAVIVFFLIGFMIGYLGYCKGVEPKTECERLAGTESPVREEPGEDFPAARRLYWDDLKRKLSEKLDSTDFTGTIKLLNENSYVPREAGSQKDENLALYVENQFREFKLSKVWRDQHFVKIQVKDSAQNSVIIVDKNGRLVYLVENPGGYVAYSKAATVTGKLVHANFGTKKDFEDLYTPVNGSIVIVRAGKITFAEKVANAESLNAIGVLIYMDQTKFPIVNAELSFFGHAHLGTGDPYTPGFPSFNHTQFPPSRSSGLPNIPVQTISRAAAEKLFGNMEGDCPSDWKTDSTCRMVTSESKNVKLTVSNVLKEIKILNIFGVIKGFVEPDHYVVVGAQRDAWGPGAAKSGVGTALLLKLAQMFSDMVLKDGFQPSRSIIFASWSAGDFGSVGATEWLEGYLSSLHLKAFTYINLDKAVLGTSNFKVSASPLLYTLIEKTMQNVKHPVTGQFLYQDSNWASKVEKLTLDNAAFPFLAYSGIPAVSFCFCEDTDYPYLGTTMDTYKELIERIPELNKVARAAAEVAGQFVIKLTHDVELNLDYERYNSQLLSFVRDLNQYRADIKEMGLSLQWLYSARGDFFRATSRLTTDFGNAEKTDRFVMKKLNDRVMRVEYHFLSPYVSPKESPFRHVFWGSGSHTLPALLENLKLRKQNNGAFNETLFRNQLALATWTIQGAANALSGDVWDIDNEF
Procedure: The ratio of the calculated koff or KD values under pH 6.0 conditions to those under pH 7.4 conditions was calculated to check pH dependency.

[2] = molecular target: T1, human transferrin receptor (hTfR); assay: SPR measurement under pH 7.4 conditions (Biacore T200, CM3 chip, hTfR captured by His Tag antibody); settings: SPR, pH 7.4; read-out: hTfR SPR pH7.4 KD
[3] = molecular target: T1, human transferrin receptor (hTfR); assay: SPR measurement under pH 6.0 conditions (Biacore T200, NTA chip, immobilized hTfR); settings: SPR, pH 6.0; read-out: hTfR SPR pH6.0 KD

CCC(CC)[C@@H]1NC(=O)[C@H](Cc2ccc(OCC(=O)O)cc2)NC(=O)[C@H](Cc2ccc(N)nc2)NC(=O)[C@H](CC(N)=O)NC(=O)[C@H](Cc2cn(CC(=O)O)c3ccccc23)NC(=O)[C@H](C(C)C)NC(=O)[C@H](Cc2cccc(Cl)c2)N(C)C(=O)[C@H](C(C)C)NC(=O)[C@H](C)NC(=O)CSC[C@@H](C(=O)NCCOCCOCCOCCOCCC(N)=O)NC(=O)[C@H](Cc2ccc(O)cc2)N(C)C(=O)[C@H](Cc2cccc(C(=O)O)c2)NC(=O)[C@H](CCCNC(=N)N)NC(=O)[C@H](CCC(N)=O)NC(=O)[C@H]([C@@H](C)CC)NC1=O [compound 84] ({CH2CO}-AV[NMePhe(3-Cl)]V[Trp(1-CH2COOH)]N[3Pal(6-NH2)]Y(Carboxymethyl)[Nva(3-Et)]IQR[Phe(3-COOH)][NMeY]C[PEG4]-NH2; thioether N-15)
dependency koff pH6.0/7.4 [1]: 17.42
Kd [2]: 1.91 µM
Kd [3]: 0.219 µM

CCC(CC)[C@@H]1NC(=O)[C@H](Cc2ccc(OCC(=O)O)cc2)NC(=O)[C@H](Cc2ccc(N)nc2)NC(=O)[C@H](CC(N)=O)NC(=O)[C@H](Cc2cn(CC(=O)O)c3ccccc23)NC(=O)[C@H](C(C)C)NC(=O)[C@H](Cc2cccc(Cl)c2)N(C)C(=O)[C@H](C(C)C)NC(=O)[C@H](C)NC(=O)CSC[C@@H](C(=O)NCCOCCOCCOCCOCCC(N)=O)NC(=O)[C@H](Cc2ccc(O)cc2)N(C)C(=O)[C@H](Cc2cccc(C(=O)O)c2)NC(=O)[C@H](CCCCN2CCOCC2)NC(=O)[C@H](CCCCN2CCOCC2)NC(=O)[C@H]([C@@H](C)CC)NC1=O [compound 83] ({CH2CO}-AV[NMePhe(3-Cl)]V[Trp(1-CH2COOH)]N[3Pal(6-NH2)]Y(Carboxymethyl)[Nva(3-Et)]I[Nle(6-morpholino)][Nle(6-morpholino)][Phe(3-COOH)][NMeY]C[PEG4]-NH2; thioether N-15)
dependency koff pH6.0/7.4 [1]: 32.62
Kd [2]: 0.0437 µM
Kd [3]: 0.144 µM

CC[C@H](C)[C@@H]1NC(=O)[C@H](Cc2ccc(OCC(=O)O)cc2)NC(=O)[C@H](Cc2ccc(N)nc2)NC(=O)[C@H](CC(N)=O)NC(=O)[C@H](Cc2c[nH]c3ccccc23)NC(=O)[C@H](C(C)C)NC(=O)[C@H](Cc2cccc(Cl)c2)N(C)C(=O)[C@H](C(C)C)NC(=O)[C@H](C)NC(=O)CSC[C@@H](C(=O)NCCOCCOCCOCCOCCC(N)=O)NC(=O)[C@H](Cc2ccc(O)cc2)N(C)C(=O)[C@H](Cc2cccc(C(=O)O)c2)NC(=O)[C@H](CCCNC(=N)N)NC(=O)[C@H](CCC(=O)NCCOCCOCCOCCOC)NC(=O)[C@H]([C@@H](C)CC)NC1=O [compound 70] ({CH2CO}-AV[NMePhe(3-Cl)]VWN[3Pal(6-NH2)]Y(Carboxymethyl)IIE(NH(CH2CH2O)4Me)R[Phe(3-COOH)][NMeY]C[PEG4]-NH2; thioether N-15)
dependency koff pH6.0/7.4 [1]: 20.00
Kd [2]: 0.00685 µM
Kd [3]: 0.0424 µM

CCC(CC)[C@@H]1NC(=O)[C@H](Cc2ccc(OCC(=O)O)cc2)NC(=O)[C@H](Cc2ccc(N)nc2)NC(=O)[C@H](CC(N)=O)NC(=O)[C@H](Cc2cn(CC(=O)O)c3ccccc23)NC(=O)[C@H](C(C)C)NC(=O)[C@H](Cc2cccc(Cl)c2)N(C)C(=O)[C@H](C(C)C)NC(=O)[C@H](C)NC(=O)CSC[C@@H](C(=O)NCCOCCOCCOCCOCCC(N)=O)NC(=O)[C@H](Cc2ccc(C(=O)O)cc2)N(C)C(=O)[C@H](Cc2cccc(C(=O)O)c2)NC(=O)[C@H](CCCNC(=N)N)NC(=O)[C@H](CCC(N)=O)NC(=O)[C@H]([C@@H](C)CC)NC1=O [compound 87] ({CH2CO}-AV[NMePhe(3-Cl)]V[Trp(1-CH2COOH)]N[3Pal(6-NH2)]Y(Carboxymethyl)[Nva(3-Et)]IQR[Phe(3-COOH)][NMePhe(4-COOH)]C[PEG4]-NH2; thioether N-15)
dependency koff pH6.0/7.4 [1]: 17.51
Kd [2]: 0.175 µM
Kd [3]: 0.466 µM

CC[C@H](C)[C@@H]1NC(=O)[C@H](Cc2ccc(OCC(=O)O)cc2)NC(=O)[C@H](Cc2ccc(O)cc2)NC(=O)[C@H](CC(N)=O)NC(=O)[C@H](Cc2cn(CC(=O)O)c3ccccc23)NC(=O)[C@H](C(C)C)NC(=O)[C@H](Cc2cccc(Cl)c2)N(C)C(=O)[C@H](C(C)C)NC(=O)[C@H](C)NC(=O)CSC[C@@H](C(=O)NCCOCCOCCOCCOCCC(N)=O)NC(=O)[C@H](Cc2ccc(O)cc2)N(C)C(=O)[C@H](Cc2ccncc2)NC(=O)[C@H](CCCCN2CCOCC2)NC(=O)[C@H](CCCCN2CCOCC2)NC(=O)[C@H]([C@@H](C)CC)NC1=O [compound 69] ({CH2CO}-AV[NMePhe(3-Cl)]V[Trp(1-CH2COOH)]NYY(Carboxymethyl)II[Nle(6-morpholino)][Nle(6-morpholino)][4Pal][NMeY]C[PEG4]-NH2; thioether N-15)
dependency koff pH6.0/7.4 [1]: 9.63
Kd [2]: 0.00857 µM
Kd [3]: 0.0335 µM

CC[C@H](C)[C@@H]1NC(=O)[C@H](Cc2ccc(OCC(=O)O)cc2)NC(=O)[C@H](Cc2ccc(O)cc2)NC(=O)[C@H](CC(N)=O)NC(=O)[C@H](Cc2cn(CCO)c3ccccc23)NC(=O)[C@H](C(C)C)NC(=O)[C@H](Cc2cccc(Cl)c2)N(C)C(=O)[C@H](C(C)C)NC(=O)[C@H](C)NC(=O)CSC[C@@H](C(=O)NCCOCCOCCOCCOCCC(N)=O)NC(=O)[C@H](Cc2ccc(O)cc2)N(C)C(=O)[C@H](Cc2cccc(C(=O)O)c2)NC(=O)[C@H](CCCNC(=N)N)NC(=O)[C@H](CCC(N)=O)NC(=O)[C@H]([C@@H](C)O)NC1=O [compound 76] ({CH2CO}-AV[NMePhe(3-Cl)]V[X2]NYY(Carboxymethyl)ITQR[Phe(3-COOH)][NMeY]C[PEG4]-NH2; thioether N-15)
dependency koff pH6.0/7.4 [1]: 3.37
Kd [2]: 0.013 µM
Kd [3]: 0.017 µM

CC[C@H](C)[C@@H]1NC(=O)[C@H](Cc2ccc(OCC(=O)O)cc2)NC(=O)[C@H](Cc2ccc(O)cc2)NC(=O)[C@H](CC(N)=O)NC(=O)[C@H](Cc2cn(CC(=O)O)c3ccccc23)NC(=O)[C@H](C(C)C)NC(=O)[C@H](Cc2cccc(Cl)c2)N(C)C(=O)[C@H](C(C)C)NC(=O)[C@H](C)NC(=O)CSC[C@@H](C(=O)NCCOCCOCCOCCOCCC(N)=O)NC(=O)[C@H](Cc2ccc(O)cc2)N(C)C(=O)[C@H](Cc2cccc(C(=O)O)c2)NC(=O)[C@H](CCCNC(=N)N)NC(=O)[C@H](CCC(N)=O)NC(=O)[C@H](CCCCNC(=N)N)NC1=O [compound 71] ({CH2CO}-AV[NMePhe(3-Cl)]V[Trp(1-CH2COOH)]NYY(Carboxymethyl)I[hArg]QR[Phe(3-COOH)][NMeY]C[PEG4]-NH2; thioether N-15)
dependency koff pH6.0/7.4 [1]: 12.78
Kd [2]: 0.018 µM
Kd [3]: 0.0752 µM
